Some test systems named below: BT-549; OVCAR-3; EKVX; CAKI-1; SF-268; NCI-H522; MDA-MB-435; SNB-19; OVCAR-5; SF-539; RPMI-8226; OVCAR-4; 786-0; COLO 205; SK-MEL-5; CCRF-CEM; LOX IMVI; SF-295; Hs-578T; A549.
Test in all cases: NCI anticancer screen, dose series, 48 h

Where “and” joins values, the source holds several entries; their conditions need not be identical. Equal entries are not always repeated.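 How tested: cells in 96-well plates exposed to compound for 48 hours at five concentrations. GI50: concentration for 50% inhibition of growth.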 Calls of active or inactive are those of the source. No stated cut-off is given here; in the data, active = GI50 up to about 1.1 µM and inactive = higher. Some results are limits rather than exact numbers.

On to `COc1cccc2c1C(=O)c1c(O)c3c(c(O)c1C2=O)C[C@@](O)(/C(C)=N\O)C[C@@H]3OC1CC(N)C(O)C(C)O1` (stereo not given in full), for which the GI50 in the test on BT-549 was 1.72 µM (inactive); in the test with OVCAR-3, 1.45 µM (inactive); with EKVX it was 3.19 µM (inactive); with CAKI-1 it was 1.93 µM (inactive); in the test with SF-268, 0.931 µM (active); with NCI-H522, 0.315 µM (active). The GI50 with MDA-MB-435 was 8.45 µM (inactive); in the test on SNB-19, 0.78 µM (active); with OVCAR-5 it was 2.7 µM (inactive); with SF-539, 0.931 µM (active); in the test with RPMI-8226, 0.592 µM (active); with OVCAR-4, 4.46 µM (inactive). Moreover, the GI50 was 1.06 µM (active) in the test on 786-0; 0.955 µM (active) in the test on COLO 205; 0.643 µM (active) with SK-MEL-5; 0.187 µM (active) with CCRF-CEM; 0.388 µM (active) with LOX IMVI; 1.38 µM (inactive) with SF-295. Besides, the GI50 in the test on Hs-578T is 1.77 µM (inactive); in the test on A549 it was 0.968 µM (active).
`COc1ccc2[nH]cc([C@@H]3C4CCC(C4)[C@H]3NCc3cccc(CN[C@H]4C5CCC(C5)[C@@H]4c4c[nH]c5ccc(OC)cc45)c3)c2c1`: the GI50 with BT-549 is 1.69 µM (inactive) and 1.62 µM (inactive); in the test with OVCAR-3, 1.65 µM (inactive) and 1.54 µM (inactive); in the test with EKVX, 1.51 µM (inactive) and 1.52 µM (inactive); in the test on CAKI-1 it was 1.6 µM (inactive) and 1.79 µM (inactive); with SF-268, 1.53 µM (inactive) and 1.47 µM (inactive); with NCI-H522, 1.5 µM (inactive) and 1.17 µM (inactive). In addition, the GI50 is 520 nM (active) and 733 nM (active) in the test on MDA-MB-435; 1.53 µM (inactive) and 1.65 µM (inactive) with SNB-19; 1.55 µM (inactive) and 1.71 µM (inactive) in the test with OVCAR-5; 1 µM (active) and 1.73 µM (inactive) in the test on SF-539; 531 nM (active) and 369 nM (active) with RPMI-8226; 1.37 µM (inactive) and 1.32 µM (inactive) in the test with OVCAR-4. For the same compound, the GI50 with 786-0 is 731 nM (active) and 708 nM (active); in the test on COLO 205, 401 nM (active) and 577 nM (active); in the test with SK-MEL-5 it was 1.62 µM (inactive) and 1.55 µM (inactive); in the test on CCRF-CEM it was 366 nM (active) and 352 nM (active); with LOX IMVI, 244 nM (active) and 235 nM (active); in the test on SF-295, 1.45 µM (inactive) and 1.66 µM (inactive). In addition, the GI50 with Hs-578T is 1.71 µM (inactive) and 1.5 µM (inactive); in the test with A549 it was 1.46 µM (inactive) and 1.61 µM (inactive).
For `NCCCc1c(-c2ccccc2)[nH]c(N)nc1=O`, the GI50 in the test on BT-549, in the test on OVCAR-3, in the test with EKVX, in the test on CAKI-1, with SF-268 and in the test with NCI-H522 was > 100 µM (inactive) each time. Also, the GI50 in the test on MDA-MB-435, with SNB-19, in the test on OVCAR-5, in the test on SF-539, with RPMI-8226 and with OVCAR-4 was > 100 µM (inactive) each time. Further, the GI50 in the test with 786-0, with COLO 205, in the test with SK-MEL-5, in the test with CCRF-CEM, in the test on LOX IMVI and with SF-295 was > 100 µM (inactive) throughout. The GI50 with Hs-578T and with A549 was > 100 µM (inactive) in each case.
For the compound `COC(=O)C1=C(C)NC2(O)C=CC(=O)C3C(=O)N(c4ccccc4)C(=O)C132` (stereo not given), the GI50 in the test on BT-549 is 64.1 µM (inactive); in the test with OVCAR-3, 66.1 µM (inactive); in the test on EKVX, > 100 µM (inactive); in the test on CAKI-1 it was > 100 µM (inactive); with SF-268, > 100 µM (inactive); with NCI-H522, 32.5 µM (inactive). Also, the GI50 in the test with MDA-MB-435 was 64.7 µM (inactive); with SNB-19, > 100 µM (inactive); in the test with OVCAR-5 it was 61.2 µM (inactive); with SF-539 it was > 100 µM (inactive); in the test on RPMI-8226, 36.2 µM (inactive); in the test on OVCAR-4 it was > 100 µM (inactive). For the same compound, the GI50 is 98.2 µM (inactive) with 786-0; 36.5 µM (inactive) in the test on COLO 205; > 100 µM (inactive) in the test with SK-MEL-5; 35 µM (inactive) in the test with CCRF-CEM; 67.3 µM (inactive) with LOX IMVI; > 100 µM (inactive) in the test with SF-295. Besides, the GI50 with Hs-578T and in the test on A549 was > 100 µM (inactive) in each case.
Take `Nc1c(S(=O)(=O)O)cc(Nc2cccc(S(N)(=O)=O)c2)c2c1C(=O)c1ccccc1C2=O`: the GI50 in the test with BT-549 was > 100 µM (inactive); with OVCAR-3, 83.9 µM (inactive); in the test with EKVX, 57 µM (inactive); in the test with CAKI-1 it was > 100 µM (inactive); with SF-268, > 100 µM (inactive); in the test with NCI-H522, 57.8 µM (inactive). The GI50 is 17.7 µM (inactive) in the test with MDA-MB-435; > 100 µM (inactive) in the test on SNB-19; > 100 µM (inactive) in the test with OVCAR-5; > 100 µM (inactive) in the test on SF-539; > 100 µM (inactive) with RPMI-8226; > 100 µM (inactive) in the test on OVCAR-4. The GI50 with 786-0 is 62.5 µM (inactive); in the test with COLO 205, 38.1 µM (inactive); in the test with SK-MEL-5, 37.5 µM (inactive); with CCRF-CEM, > 100 µM (inactive); in the test on LOX IMVI, 43.8 µM (inactive); in the test with SF-295, 49.7 µM (inactive). In addition, the GI50 in the test with Hs-578T was 29 µM (inactive); in the test with A549 it was > 100 µM (inactive).
Take `CC(=O)c1cc2c(s1)C(=O)c1sccc1C2=O`: the GI50 with BT-549 was 0.0184 µM (active); in the test with OVCAR-3, < 0.014 µM (active); in the test on EKVX it was 0.118 µM (active); in the test on CAKI-1, 0.212 µM (active); with SF-268, 0.0267 µM (active); with NCI-H522 it was 0.0175 µM (active). The GI50 is < 0.01 µM (active) with MDA-MB-435; 0.0766 µM (active) with SNB-19; 0.0664 µM (active) in the test with OVCAR-5; 0.0181 µM (active) in the test on SF-539; 0.0392 µM (active) in the test on RPMI-8226; 0.0706 µM (active) with OVCAR-4. In addition, the GI50 was 0.195 µM (active) in the test with 786-0; 1.31 µM (inactive) in the test with COLO 205; < 0.0113 µM (active) with SK-MEL-5; 0.0392 µM (active) in the test on CCRF-CEM; 0.0102 µM (active) with LOX IMVI; 0.04 µM (active) in the test on SF-295. Besides, the values for the GI50 in the test on Hs-578T and in the test with A549 were 0.0365 µM (active) and 0.207 µM (active), respectively.
As for `Cc1nc2c(=O)n(C)c(=O)nc-2n(CCO)c1C`, the GI50 in the test on BT-549, in the test with OVCAR-3, in the test on EKVX, with CAKI-1, in the test on SF-268 and in the test with NCI-H522 was > 100 µM (inactive) throughout. Moreover, the GI50 with MDA-MB-435, in the test with SNB-19, in the test with OVCAR-5, in the test with SF-539, in the test with RPMI-8226 and in the test with OVCAR-4 was > 100 µM (inactive) throughout. Also, the GI50 in the test on 786-0, in the test on COLO 205, in the test on SK-MEL-5, in the test with CCRF-CEM, in the test with LOX IMVI and in the test with SF-295 was > 100 µM (inactive) in each case. Also, the GI50 in the test on Hs-578T and with A549 was > 100 µM (inactive) in each case.
Regarding `O=S(=O)(O)C(Cc1nc2ccccc2[nH]1)S(=O)(=O)OCCC1S(=O)(=O)OCCOS1(=O)=O` (stereo not given), the GI50 in the test with BT-549, in the test on OVCAR-3, in the test with EKVX, in the test with CAKI-1, in the test on SF-268 and with NCI-H522 was > 100 µM (inactive) throughout. In addition, the GI50 in the test with MDA-MB-435, in the test on SNB-19, in the test with OVCAR-5, in the test on SF-539, with RPMI-8226 and with OVCAR-4 was > 100 µM (inactive) each time. Moreover, the GI50 with 786-0, with COLO 205, in the test on SK-MEL-5, in the test with CCRF-CEM, in the test with LOX IMVI and with SF-295 was > 100 µM (inactive) in each case. Moreover, the GI50 in the test on Hs-578T and in the test with A549 was > 100 µM (inactive) in each case.
Consider `CN(Cc1cnc2nc(N)nc(N)c2n1)c1ccc(C(=O)NCCCC(=O)O)cc1`, for which the GI50 was > 65 µM (inactive) in the test on BT-549; > 93.5 µM (inactive) in the test with OVCAR-3; > 29 µM (inactive) in the test on EKVX; > 27.5 µM (inactive) in the test with CAKI-1; 29.9 µM (inactive) in the test with SF-268; 16.2 µM (inactive) in the test on NCI-H522. For the same compound, the GI50 in the test with MDA-MB-435 is > 25.4 µM (inactive); in the test on SNB-19 it was > 63.1 µM (inactive); in the test with OVCAR-5 it was > 100 µM (inactive); in the test on SF-539, 8.75 µM (inactive); with RPMI-8226, > 40 µM (inactive); in the test with OVCAR-4 it was > 100 µM (inactive). Besides, the GI50 is 12.5 µM (inactive) in the test on 786-0; > 100 µM (inactive) in the test with COLO 205; 49.2 µM (inactive) in the test on SK-MEL-5; 17.3 µM (inactive) in the test on CCRF-CEM; 4 µM (inactive) in the test with LOX IMVI; 12.3 µM (inactive) in the test with SF-295. In addition, the figures for the GI50 with Hs-578T and in the test on A549 were > 92.3 µM (inactive) and 5.83 µM (inactive), respectively.

The values are drawn from ChEMBL document CHEMBL1201862, “PubChem BioAssay data set” (2004).
